Source: US20080194585A1, “Fungicidal Pyrazine Derivatives” (priority 2005, published 2008)
Marks after values point to notes of the source that are not given here.

Key:
[1] = test system: Pythium aphanidermatum; assay: Test A: bluegrass pythium blight, preventive spray on bluegrass seedlings
[2] = test system: Plasmopara viticola; assay: Test D: grape downy mildew, spray after inoculation of grape seedlings; assay type: in vivo
Text: Upon removal, disease ratings were made. […] A dash (-) indicates no test results.

[3] = test system: Erysiphe graminis f. sp. tritici; assay: Test L: wheat powdery mildew, preventive spray on wheat seedlings; settings: 40 ppm (*)
[4] = test system: Septoria nodorum; assay: Test H: wheat glum blotch, preventive spray on wheat seedlings; settings: 40 ppm (*)
Experimental: (the causal agent of wheat glum blotch) and incubated in a saturated atmosphere at 20° C. for 48 h, and then moved to a growth chamber at 22° C. for 5 days, after which disease ratings were made.

[5] = test system: Rhizoctonia oryzae; assay: Test G: turf brown patch, preventive spray on creeping bent grass seedlings; settings: 40 ppm (*)
Experimental: (the causal agent of turf brown patch) and incubated in a saturated atmosphere at 27° C. for 24 h, and then moved to a growth chamber at 27° C. for 5 days, after which disease ratings were made.

[6] = test system: Puccinia recondita f. sp. tritici; assay: Test K: wheat leaf rust, preventive spray on wheat seedlings; settings: 40 ppm (*)
[7] = test system: Colletotrichum orbiculare; assay: Test B: cucumber Colletotrichum anthracnose, preventive spray on cucumber seedlings; settings: 40 ppm (*)
[8] = test system: Phytophthora infestans; assay: whole plant or invertebrate; assay type: in vivo
[9] = test system: Botrytis cinerea; assay: Test E: tomato botrytis, preventive spray on tomato seedlings; settings: 40 ppm (*)
[10] = test system: Septoria tritici; assay: Test J: wheat leaf blotch, preventive spray on wheat seedlings; assay type: in vivo
Text: A dash (-) indicates no test results.

[11] = test system: fusarium graminearium; assay: Test I: wheat head scab, preventive spray on wheat seedlings
Experimental: (the causal agent of wheat head scab) and incubated in a saturated atmosphere at 20° C. for 72 h, and then moved to a growth chamber at 22° C. for 5 days, after which disease ratings were made.

Compound	Test A disease control rating ([1]; 200 ppm)	Test D disease control rating ([2]; 200 ppm)	Test L disease control rating [3]	Test H disease control rating [4]	Test G disease control rating [5]	Test K disease control rating [6]	Test B disease control rating [7]	Test F disease control rating ([8]; 200 ppm)	Test E disease control rating [9]	Test J disease control rating ([10]; 40 ppm (*))	Test I disease control rating ([11]; 200 ppm)	Test J disease control rating ([10]; 200 ppm)	Test A disease control rating ([1]; 40 ppm (*))	Test D disease control rating ([2]; 40 ppm (*))	Test F disease control rating ([8]; 40 ppm (*))	Test I disease control rating ([11]; 40 ppm (*))
Cc1cc(C)cc(-c2c(Cl)nc(-n3cncn3)c(=O)n2CC(C)C)c1 [compound 136]	0%	40%	0* %	0* %	0* %	0* %	0* %	58%	0* %	28* %	0%					
Cc1cc(C)cc(-c2c(Cl)nc(-n3cccn3)c(=O)n2CC(C)C)c1 [compound 137]	0%	0%	0* %	0* %	0* %	0* %	0* %	0%	0* %		0%	30%				
CCCCn1c(-c2c(F)cccc2F)c(Cl)nc(-n2cccn2)c1=O [compound 148]	0%	73%	98* %	100* %	81* %	97* %	47* %	0%	99* %	100* %	0%					
CC(C)Cn1c(-c2cc(C(F)(F)F)cc(C(F)(F)F)c2)c(Cl)nc(-n2cccn2)c1=O [compound 150]			0* %	0* %	0* %	0* %	0* %		0* %	0* %			0* %	0* %	0* %	0* %
CC(C)Cn1c(-c2ccc(Cl)o2)c(Cl)nc(-n2cccn2)c1=O [compound 151]	0%	31%	0* %	0* %	0* %	19* %	0* %	33%	98* %	12* %	0%					
CC(C)Cn1c(-c2ccc(Cl)s2)c(Cl)nc(-n2cccn2)c1=O [compound 152]	0%	16%	0* %	0* %	0* %	55* %	0* %	0%	100* %	91* %	0%					
CC(C)Cn1c(-c2ccoc2)c(Cl)nc(-n2cccn2)c1=O [compound 153]	0%	31%	0* %	0* %	0* %	0* %	0* %	0%	79* %	20* %	0%					
CC(C)Cn1c(-c2ccsc2)c(Cl)nc(-n2cccn2)c1=O [compound 154]	0%	50%	0* %	0* %	0* %	0* %	0* %	0%	99* %	45* %	0%					
CC(C)Cn1c(-c2ccc(Cl)o2)c(Cl)nc(-n2cncn2)c1=O [compound 156]	0%	0%	0* %	0* %	0* %	0* %	0* %	0%	0* %	14* %	0%					
CC(C)Cn1c(-c2ccc(Cl)s2)c(Cl)nc(-n2cncn2)c1=O [compound 157]	0%	0%	0* %	0* %	0* %	0* %	0* %	0%	0* %	47* %	49%					
CC(C)Cn1c(-c2ccoc2)c(Cl)nc(-n2cncn2)c1=O [compound 158]	0%	0%	0* %	0* %	0* %	0* %	0* %	0%	0* %	15* %	0%					
CC(C)Cn1c(-c2ccsc2)c(Cl)nc(-n2cncn2)c1=O [compound 159]	0%	0%	0* %	0* %	0* %	0* %	0* %	47%	0* %	69* %	0%					
N#Cc1nc(Cl)c(-c2c(F)cccc2F)n(-c2ccccc2)c1=O [compound 163]			0* %	0* %	0* %	0* %	0* %		0* %	3* %			0* %	0* %	0* %	0* %
CCC(C)Cn1c(-c2ccc(F)cc2Cl)c(Cl)nc(-n2cncn2)c1=O (stereo not drawn) [compound 165]			100* %	100* %	16* %	100* %	52* %		100* %	100* %			0* %	31* %	0* %	0* %
CCC(C)Cn1c(-c2ccc(F)cc2Cl)c(Cl)nc(-n2cc(Cl)cn2)c1=O (stereo not drawn) [compound 166]			0* %	0* %	26* %	86* %	17* %		100* %	100* %			0* %	0* %	0* %	0* %
CCC(C)Cn1c(-c2ccc(F)cc2Cl)c(Cl)nc(-n2ccc(C(F)(F)F)n2)c1=O (stereo not drawn) [compound 167]			0* %	0* %	0* %	80* %	0* %		0* %	93* %			0* %	0* %	0* %	0* %
CCC(C)Cn1c(-c2ccc(F)cc2Cl)c(Cl)nc(-n2nc(C)cc2C)c1=O (stereo not drawn) [compound 168]			0* %	0* %	0* %	0* %	0* %		0* %	36* %			0* %	0* %	0* %	0* %
CCC(C)Cn1c(-c2ccc(F)cc2Cl)c(Cl)nc(-n2cc(C)cn2)c1=O (stereo not drawn) [compound 169]			75* %	97* %	0* %	92* %	98* %		99* %	100* %			0* %	0* %	0* %	0* %
